Source: PMC10539439 (Pharmacological Reports, 2023)

Test: Blood pressure, 24-h telemetric method, normotensive rats
Assay type: in vivo, rat
Details: telemetry, 5 mg/kg
Experimental: The blood pressure of rats treated with the tested compound was measured for a 24 h period after ip treatment (5 mg/kg b.w.) with a special telemetric system Stellar (TSE-Systems, Germany).
Surgery: The operation was carried out over 30 min under sterile conditions. Rats were anaesthetized with ketamine and xylasine (intramuscular injection: 100 mg/kg and 10 mg/kg). Before surgery and for 7 days after, the animals were also treated with cefuroxime (20 mg/kg/day) via intramuscular injection and ketoprofen (5 mg/kg/day) via ip injection. […] The transmitter was sutured to the peritoneal cavity.
The rats were individually caged for 2 weeks to heal after surgical cut. The animals were then placed in pairs in cages to reduce their isolation stress. Blood pressure was measured: before ip administration of the compounds – time 0 min and 24 h thereafter.

[1] = after first administration, time 1, n 6
[2] = after first administration, time 1.25, n 6
[3] = after first administration, time 1.5, n 6
[4] = after first administration, time 1.75, n 6
[5] = after first administration, time 2, n 6
[6] = after first administration, time 3, n 6
[7] = after first administration, time 4, n 6
[8] = after first administration, time 5, n 6
[9] = after first administration, time 6, n 6
[10] = after first administration, time 7, n 6
[11] = after first administration, time 8, n 6
[12] = after first administration, time 9, n 6
[13] = after first administration, time 10, n 6
[14] = after first administration, time 11, n 6
[15] = after first administration, time 12, n 6
[16] = after first administration, time 13, n 6
[17] = after first administration, time 14, n 6
[18] = after first administration, time 15, n 6
[19] = after first administration, time 16, n 6
[20] = after first administration, time 17, n 6
[21] = after first administration, time 18, n 6
[22] = after first administration, time 19, n 6
[23] = after first administration, time 20, n 6
[24] = after first administration, time 21, n 6
[25] = after first administration, time 22, n 6
[26] = after first administration, time 23, n 6
[27] = after first administration, time 24, n 6
[28] = after forteenth administration, time 0, n 6
[29] = after forteenth administration, time 0.25, n 6
[30] = after seventh administration, time 0, n 6
[31] = after seventh administration, time 0.25, n 6
[32] = after seventh administration, time 0.5, n 6
[33] = after seventh administration, time 0.75, n 6
[34] = after seventh administration, time 1, n 6
[35] = after seventh administration, time 1.25, n 6
[36] = after seventh administration, time 1.5, n 6
[37] = after seventh administration, time 1.75, n 6
[38] = after seventh administration, time 2, n 6
[39] = after seventh administration, time 3, n 6
[40] = after seventh administration, time 4, n 6
[41] = after seventh administration, time 5, n 6
[42] = after seventh administration, time 6, n 6
[43] = after seventh administration, time 7, n 6
[44] = after seventh administration, time 8, n 6
[45] = after seventh administration, time 9, n 6
[46] = after seventh administration, time 10, n 6
[47] = after seventh administration, time 11, n 6
[48] = after seventh administration, time 12, n 6
[49] = after seventh administration, time 13, n 6
[50] = after seventh administration, time 14, n 6
[51] = after seventh administration, time 15, n 6
[52] = after seventh administration, time 16, n 6
[53] = after seventh administration, time 17, n 6
[54] = after seventh administration, time 18, n 6
[55] = after seventh administration, time 19, n 6
[56] = after seventh administration, time 20, n 6
[57] = after seventh administration, time 21, n 6
[58] = after seventh administration, time 22, n 6
[59] = after seventh administration, time 23, n 6
[60] = after seventh administration, time 24, n 6

## N=C(N)N/N=C/c1c(Cl)cc(O)cc1Cl [4HOGuanabenz]
[1]
  diastolic pressure, mean: 81.38 mmHg
  systolic pressure, mean: 117.3 mmHg
[2]
  diastolic pressure, mean: 76.88 mmHg
  systolic pressure, mean: 111 mmHg
[3]
  diastolic pressure, mean: 75.13 mmHg
  systolic pressure, mean: 106 mmHg
[4]
  diastolic pressure, mean: 80.13 mmHg
  systolic pressure, mean: 112.4 mmHg
[5]
  diastolic pressure, mean: 74.63 mmHg
  systolic pressure, mean: 107 mmHg
[6]
  diastolic pressure, mean: 78.75 mmHg
  systolic pressure, mean: 110.8 mmHg
[7]
  diastolic pressure, mean: 68.75 mmHg
  systolic pressure, mean: 107.9 mmHg
[8]
  diastolic pressure, mean: 80.88 mmHg
  systolic pressure, mean: 114.1 mmHg
[9]
  diastolic pressure, mean: 78 mmHg
  systolic pressure, mean: 111.6 mmHg
[10]
  diastolic pressure, mean: 71 mmHg
  systolic pressure, mean: 111.1 mmHg
[11]
  diastolic pressure, mean: 72.75 mmHg
  systolic pressure, mean: 110.8 mmHg
[12]
  diastolic pressure, mean: 77.88 mmHg
  systolic pressure, mean: 114.6 mmHg
[13]
  diastolic pressure, mean: 77.63 mmHg
  systolic pressure, mean: 114.9 mmHg
[14]
  diastolic pressure, mean: 70.75 mmHg
  systolic pressure, mean: 107.6 mmHg
[15]
  diastolic pressure, mean: 80.25 mmHg
  systolic pressure, mean: 121.9 mmHg
[16]
  diastolic pressure, mean: 74.5 mmHg
  systolic pressure, mean: 114.9 mmHg
[17]
  diastolic pressure, mean: 81.88 mmHg
  systolic pressure, mean: 122.6 mmHg
[18]
  diastolic pressure, mean: 71.63 mmHg
  systolic pressure, mean: 109.4 mmHg
[19]
  diastolic pressure, mean: 72.75 mmHg
  systolic pressure, mean: 108.4 mmHg
[20]
  diastolic pressure, mean: 76.75 mmHg
  systolic pressure, mean: 112.6 mmHg
[21]
  diastolic pressure, mean: 78.75 mmHg
  systolic pressure, mean: 115.3 mmHg
[22]
  diastolic pressure, mean: 79.5 mmHg
  systolic pressure, mean: 117.3 mmHg
[23]
  diastolic pressure, mean: 77 mmHg
  systolic pressure, mean: 117.8 mmHg
[24]
  diastolic pressure, mean: 76.63 mmHg
  systolic pressure, mean: 117.8 mmHg
[25]
  diastolic pressure, mean: 71.5 mmHg
  systolic pressure, mean: 109.5 mmHg
[26]
  diastolic pressure, mean: 73.38 mmHg
  systolic pressure, mean: 109.5 mmHg
[27]
  diastolic pressure, mean: 77.63 mmHg
  systolic pressure, mean: 114.3 mmHg
[28]
  diastolic pressure, mean: 70.25 mmHg
  systolic pressure, mean: 110.5 mmHg
[29]
  diastolic pressure, mean: 90.75 mmHg
  systolic pressure, mean: 139.3 mmHg
[30]
  diastolic pressure, mean: 74.83 mmHg
  systolic pressure, mean: 108.2 mmHg
[31]
  diastolic pressure, mean: 97.5 mmHg
  systolic pressure, mean: 141.8 mmHg
[32]
  diastolic pressure, mean: 76.75 mmHg
  systolic pressure, mean: 114.3 mmHg
[33]
  diastolic pressure, mean: 77.5 mmHg
  systolic pressure, mean: 111.5 mmHg
[34]
  diastolic pressure, mean: 76.75 mmHg
  systolic pressure, mean: 109.3 mmHg
[35]
  diastolic pressure, mean: 74.25 mmHg
  systolic pressure, mean: 106.8 mmHg
[36]
  diastolic pressure, mean: 74 mmHg
  systolic pressure, mean: 107.3 mmHg
[37]
  diastolic pressure, mean: 70.75 mmHg
  systolic pressure, mean: 102 mmHg
[38]
  diastolic pressure, mean: 67.25 mmHg
  systolic pressure, mean: 100.5 mmHg
[39]
  diastolic pressure, mean: 74 mmHg
  systolic pressure, mean: 109 mmHg
[40]
  diastolic pressure, mean: 74.75 mmHg
  systolic pressure, mean: 109.3 mmHg
[41]
  diastolic pressure, mean: 74.25 mmHg
  systolic pressure, mean: 110.3 mmHg
[42]
  diastolic pressure, mean: 79.75 mmHg
  systolic pressure, mean: 113.8 mmHg
[43]
  diastolic pressure, mean: 70.5 mmHg
  systolic pressure, mean: 113.3 mmHg
[44]
  diastolic pressure, mean: 78.75 mmHg
  systolic pressure, mean: 116.3 mmHg
[45]
  diastolic pressure, mean: 75.5 mmHg
  systolic pressure, mean: 119.5 mmHg
[46]
  diastolic pressure, mean: 65.5 mmHg
  systolic pressure, mean: 106 mmHg
[47]
  diastolic pressure, mean: 75.75 mmHg
  systolic pressure, mean: 117.3 mmHg
[48]
  diastolic pressure, mean: 65.5 mmHg
  systolic pressure, mean: 116.8 mmHg
[49]
  diastolic pressure, mean: 79.25 mmHg
  systolic pressure, mean: 121.5 mmHg
[50]
  diastolic pressure, mean: 74 mmHg
  systolic pressure, mean: 111.5 mmHg
[51]
  diastolic pressure, mean: 77.25 mmHg
  systolic pressure, mean: 113.3 mmHg
[52]
  diastolic pressure, mean: 71.5 mmHg
  systolic pressure, mean: 107.3 mmHg
[53]
  diastolic pressure, mean: 79 mmHg
  systolic pressure, mean: 122.3 mmHg
[54]
  diastolic pressure, mean: 77 mmHg
  systolic pressure, mean: 117.5 mmHg
[55]
  diastolic pressure, mean: 77 mmHg
  systolic pressure, mean: 120.5 mmHg
[56]
  diastolic pressure, mean: 76.25 mmHg
  systolic pressure, mean: 122.3 mmHg
[57]
  diastolic pressure, mean: 69.25 mmHg
  systolic pressure, mean: 110 mmHg
[58]
  diastolic pressure, mean: 68 mmHg
  systolic pressure, mean: 108 mmHg
[59]
  diastolic pressure, mean: 63.75 mmHg
  systolic pressure, mean: 107 mmHg
[60]
  diastolic pressure, mean: 67.5 mmHg
  systolic pressure, mean: 105 mmHg
